Numbered stars: 1 amine (or outer) side, 2 acyl side, 3 side chain; on linkers, the order of the positions; unused ones are H or OH. Bridge positions count the residues as written; N and C are the ends. Square brackets hold non-standard residues; d marks the D form. Peptide text beside a SMILES is read from it. X5 = CCCC[C@@H](C(=O)[*:2])N(CC)[*:1]; X2 = C[C@@H](C(=O)[*:2])N(CCN)[*:1]; X1 = O=C(CN(CCC(F)(F)F)[*:1])[*:2]; NBnAla = C[C@H](NCc1ccccc1)C(=O)O; Hyp = O=C(O)[C@@H]1C[C@@H](O)CN1; Gly(N-CH2CH2OH) = O=C(O)CNCCO; NMeNle = CCCC[C@H](NC)C(=O)O; NEtAla = CCN[C@@H](C)C(=O)O; NMeA = CN[C@@H](C)C(=O)O; Nphe = O=C(O)CNCc1ccccc1; Dab = NCC[C@H](N)C(=O)O; Nme = COCCNCC(=O)O; NEtG = CCNCC(=O)O
biological target: T1, PD-1-Ig binding to PD-L1-TVMV-His (PD-L1-His) (Homo sapiens, UniProt Q9NZQ7); experiment: PD-1/PD-L1 Homogenous Time-Resolved Fluorescence (HTRF) binding assay; conditions: numeric value; PD-L1-His 10 nM, PD-1-Ig 20 nM
T1 construct: hPDL1(19-239)-TVMV-His; made in house; host or cells: HEK293T
Description: Methods for Testing the Ability of Macrocyclic Peptides to Compete for the Binding of Pd-1 to Pd-L1 Using Homogenous Time-Resolved Fluorescence (HTRF) Binding Assays
The ability of the macrocyclic peptides of the present disclosure to bind to PD-L1 was investigated using a PD-1/PD-L1 Homogenous Time-Resolved Fluorescence (HTRF) binding assay.
Homogenous Time-Resolved Fluorescence (HTRF) Assays of Binding of Soluble PD-1 to Soluble PD-L1. Soluble PD-1 and soluble PD-L1 refers to proteins with carboxyl-end truncations that remove the transmembrane-spanning regions and are fused to heterologous sequences, specifically the Fc portion of the human immunoglobuling G sequence (Ig) or the hexahistidine epitope tag (His). All binding studies were performed in an HTRF assay buffer consisting of dPBS supplemented with 0.1% (w/v) bovine serum albumin and 0.05% (v/v) Tween-20. For the PD-1-Ig/PD-L1-His binding assay, inhibitors were pre-incubated with PD-L1-His (10 nM final) for 15 m in 4 μl of assay buffer, followed by addition of PD-1-Ig (20 nM final) in 1 μl of assay buffer and further incubation for 15 m. PD-L1 fusion proteins from either human, cynomologous macaques, mouse, or other species were used. HTRF detection was achieved using europium crypate-labeled anti-Ig monoclonal antibody (1 nM final) and allophycocyanin (APC) labeled anti-His monoclonal antibody (20 nM final). Antibodies were diluted in HTRF detection buffer and 5 μl was dispensed on top of binding reaction. The reaction was allowed to equilibrate for 30 minutes and signal (665 nm/620 nm ratio) was obtained using an EnVision fluorometer. Additional binding assays were established between PD-1-Ig/PD-L2-His (20 and 5 nM, respectively), CD80-His/PD-L1-Ig (100 and 10 nM, respectively) and CD80-His/CTLA4-Ig (10 and 5 nM, respectively). Binding/competition studies between biotinylated Compound No. 71 and human PD-L1-His were performed as follows. Macrocyclic peptide inhibitors were pre-incubated with PD-L1-His (10 nM final) for 60 minutes in 4 μl of assay buffer followed by addition of biotinylated Compound No. 71 (0.5 nM final) in 1 μl of assay buffer. Binding was allowed to equilibrate for 30 minutes followed by addition of europium crypated labeled Streptavidin (2.5 pM final) and APC-labeled anti-His (20 nM final) in 5 μl of HTRF buffer. The reaction was allowed to equilibrate for 30 m and signal (665 nm/620 nm ratio) was obtained using an EnVision fluorometer.
Recombinant Proteins. Carboxyl-truncated human PD-1 (amino acids 25-167) with a C-terminal human Ig epitope tag [hPD-1 (25-167)-3S-IG] and human PD-L1 (amino acids 18-239) with a C-terminal His epitope tag [hPD-L1(19-239)-tobacco vein mottling virus protease cleavage site (TVMV)-His] were expressed in HEK293T cells and purified sequentially by recombinant Protein A affinity chromatography and size exclusion chromatography. Human PD-L2-His (Sino Biologicals), CD80-His (Sino Biologicals), CTLA4-Ig (RnD Systems) were all obtained through commercial sources.
Ranges are as follows: A=0.10-10 μM; B=0.01-0.099 μM; C=0.005-0.0099 μM.

T1 sequence (Q9NZQ7 with tags, fused parts or gaps): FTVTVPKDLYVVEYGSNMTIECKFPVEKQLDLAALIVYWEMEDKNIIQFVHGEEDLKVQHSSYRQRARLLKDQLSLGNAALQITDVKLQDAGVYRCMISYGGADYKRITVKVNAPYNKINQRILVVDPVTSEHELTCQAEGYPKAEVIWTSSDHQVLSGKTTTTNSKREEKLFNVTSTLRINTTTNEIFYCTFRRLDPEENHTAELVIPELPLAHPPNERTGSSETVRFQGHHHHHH

IC50 [nM] | SMILES
200 | CCCC[C@H]1C(=O)N(C)[C@@H](CCCC)C(=O)N[C@@H](CC(C)C)C(=O)N[C@H](C(=O)NCC(N)=O)CSCC(=O)N[C@@H](Cc2ccc(O)cc2)C(=O)N(C)[C@@H](C)C(=O)N[C@@H](CC(N)=O)C(=O)N(Cc2ccccc2)CC(=O)N[C@@H](Cc2cnc[nH]2)C(=O)N[C@@H](CCC(=O)O)C(=O)N2C[C@H](O)C[C@H]2C(=O)N[C@@H](Cc2c[nH]c3ccccc23)C(=O)N[C@@H](CCN)C(=O)N[C@@H](Cc2c[nH]c3ccccc23)C(=O)N1C [Example 3008] ({CH2CO}-Y[NMeA]N[Nphe]HE[Hyp]W[Dab]W[NMeNle][NMeNle]LCG-NH2; thioether N-14)
2360 | CCCC[C@H]1C(=O)N[C@@H](CC(C)C)C(=O)N[C@H](C(=O)NCC(N)=O)CSCC(=O)N[C@@H](Cc2ccc(O)cc2)C(=O)N(C)[C@@H](C)C(=O)N[C@@H](CC(N)=O)C(=O)N2CCC[C@H]2C(=O)N[C@@H](Cc2cnc[nH]2)C(=O)N[C@@H](CCC(=O)O)C(=O)N2C[C@H](O)C[C@H]2C(=O)N[C@@H](Cc2c[nH]c3ccccc23)C(=O)N[C@@H](CCN)C(=O)N[C@@H](Cc2c[nH]c3ccccc23)C(=O)N(CCC(F)(F)F)CC(=O)N1C [Example 3038] ({CH2CO}-Y[NMeA]NPHE[Hyp]W[Dab]W[X1][NMeNle]LCG-NH2; thioether N-14)

same assay, conditions: range class; PD-L1-His 10 nM, PD-1-Ig 20 nM

SMILES | IC50 [nM]
CCCC[C@H]1C(=O)N(C)[C@@H](CCCC)C(=O)N[C@@H](CC(C)C)C(=O)N[C@H](C(=O)NCC(N)=O)CSCC(=O)N[C@@H](Cc2ccc(O)cc2)C(=O)N(C)[C@@H](C)C(=O)N[C@@H](CC(N)=O)C(=O)N(CCOC)CC(=O)N[C@@H](Cc2cnc[nH]2)C(=O)N[C@@H](CCC(=O)O)C(=O)N2C[C@H](O)C[C@H]2C(=O)N[C@@H](Cc2c[nH]c3ccccc23)C(=O)N[C@@H](CCN)C(=O)N[C@@H](Cc2c[nH]c3ccccc23)C(=O)N1C [Example 3009] ({CH2CO}-Y[NMeA]N[Nme]HE[Hyp]W[Dab]W[NMeNle][NMeNle]LCG-NH2; thioether N-14) | 10 to 99
CCCC[C@H]1C(=O)N[C@@H](CC(C)C)C(=O)N[C@H](C(=O)NCC(N)=O)CSCC(=O)N[C@@H](Cc2ccc(O)cc2)C(=O)N(C)[C@@H](C)C(=O)N[C@@H](CC(N)=O)C(=O)N2CCC[C@H]2C(=O)N[C@@H](Cc2cnc[nH]2)C(=O)N[C@@H](CCC(=O)O)C(=O)N2C[C@H](O)C[C@H]2C(=O)N[C@@H](Cc2c[nH]c3ccccc23)C(=O)N[C@@H](CCN)C(=O)N[C@@H](Cc2c[nH]c3ccccc23)C(=O)N(CC)[C@@H](C)C(=O)N1C [Example 3024] ({CH2CO}-Y[NMeA]NPHE[Hyp]W[Dab]W[NEtAla][NMeNle]LCG-NH2; thioether N-14) | 10 to 99
CCCC[C@H]1C(=O)N(C)[C@@H](CCCC)C(=O)N[C@@H](CC(C)C)C(=O)N[C@H](C(=O)NCC(N)=O)CSCC(=O)N[C@@H](Cc2ccc(O)cc2)C(=O)N(Cc2ccccc2)[C@@H](C)C(=O)N[C@@H](CC(N)=O)C(=O)N2CCC[C@H]2C(=O)N[C@@H](Cc2cnc[nH]2)C(=O)N[C@@H](CCC(=O)O)C(=O)N2C[C@H](O)C[C@H]2C(=O)N[C@@H](Cc2c[nH]c3ccccc23)C(=O)N[C@@H](CCN)C(=O)N[C@@H](Cc2c[nH]c3ccccc23)C(=O)N1C [Example 3019] ({CH2CO}-Y[NBnAla]NPHE[Hyp]W[Dab]W[NMeNle][NMeNle]LCG-NH2; thioether N-14) | 10 to 99
CCCC[C@H]1C(=O)N[C@@H](CC(C)C)C(=O)N[C@H](C(=O)NCC(N)=O)CSCC(=O)N[C@@H](Cc2ccc(O)cc2)C(=O)N(C)[C@@H](C)C(=O)N[C@@H](CC(N)=O)C(=O)N2CCC[C@H]2C(=O)N[C@@H](Cc2cnc[nH]2)C(=O)N[C@@H](CCC(=O)O)C(=O)N2C[C@H](O)C[C@H]2C(=O)N[C@@H](Cc2c[nH]c3ccccc23)C(=O)N[C@@H](CCN)C(=O)N[C@@H](Cc2c[nH]c3ccccc23)C(=O)N(CCN)[C@@H](C)C(=O)N1C [Example 3022] ({CH2CO}-Y[NMeA]NPHE[Hyp]W[Dab]W[X2][NMeNle]LCG-NH2; thioether N-14) | 10 to 99
CCCC[C@H]1C(=O)N(C)[C@@H](CCCC)C(=O)N[C@@H](CC(C)C)C(=O)N[C@H](C(=O)NCC(N)=O)CSCC(=O)N[C@@H](Cc2ccc(O)cc2)C(=O)N(C)[C@@H](C)C(=O)N[C@@H](CC(N)=O)C(=O)N2CCC[C@H]2C(=O)N[C@@H](Cc2cnc[nH]2)C(=O)N[C@@H](CCC(=O)O)C(=O)N(CC)CC(=O)N[C@@H](Cc2c[nH]c3ccccc23)C(=O)N[C@@H](CCN)C(=O)N[C@@H](Cc2c[nH]c3ccccc23)C(=O)N1C [Example 3003] ({CH2CO}-Y[NMeA]NPHE[NEtG]W[Dab]W[NMeNle][NMeNle]LCG-NH2; thioether N-14) | 10 to 99

The next lines start with the values.

IC50 [nM] | SMILES
10 to 99 | CCCC[C@H]1C(=O)N(C)[C@@H](CCCC)C(=O)N[C@@H](CC(C)C)C(=O)N[C@H](C(=O)NCC(N)=O)CSCC(=O)N[C@@H](Cc2ccc(O)cc2)C(=O)N(C)[C@@H](C)C(=O)N[C@@H](CC(N)=O)C(=O)N2CCC[C@H]2C(=O)N[C@@H](Cc2cnc[nH]2)C(=O)N[C@@H](CCC(=O)O)C(=O)N(CCO)CC(=O)N[C@@H](Cc2c[nH]c3ccccc23)C(=O)N[C@@H](CCN)C(=O)N[C@@H](Cc2c[nH]c3ccccc23)C(=O)N1C [Example 3012] ({CH2CO}-Y[NMeA]NPHE[Gly(N-CH2CH2OH)]W[Dab]W[NMeNle][NMeNle]LCG-NH2; thioether N-14)
10 to 99 | CCCC[C@H]1C(=O)N(C)[C@@H](CCCC)C(=O)N[C@@H](CC(C)C)C(=O)N[C@H](C(=O)NCC(N)=O)CSCC(=O)N[C@@H](Cc2ccc(O)cc2)C(=O)N(C)[C@@H](C)C(=O)N[C@@H](CC(N)=O)C(=O)N(CC)CC(=O)N[C@@H](Cc2cnc[nH]2)C(=O)N[C@@H](CCC(=O)O)C(=O)N2C[C@H](O)C[C@H]2C(=O)N[C@@H](Cc2c[nH]c3ccccc23)C(=O)N[C@@H](CCN)C(=O)N[C@@H](Cc2c[nH]c3ccccc23)C(=O)N1C [Example 3013] ({CH2CO}-Y[NMeA]N[NEtG]HE[Hyp]W[Dab]W[NMeNle][NMeNle]LCG-NH2; thioether N-14)
5 to 9.9 | CCCC[C@H]1C(=O)N(C)[C@@H](CCCC)C(=O)N[C@@H](CC(C)C)C(=O)N[C@H](C(=O)NCC(N)=O)CSCC(=O)N[C@@H](Cc2ccc(O)cc2)C(=O)N(C)[C@@H](C)C(=O)N[C@@H](CC(N)=O)C(=O)N(CC(=O)O)CC(=O)N[C@@H](Cc2c[nH]cn2)C(=O)N[C@@H](CCC(=O)O)C(=O)N2C[C@H](O)C[C@H]2C(=O)N[C@@H](Cc2c[nH]c3ccccc23)C(=O)N[C@@H](CCN)C(=O)N[C@@H](Cc2csc3ccccc23)C(=O)N1C [Example 5002]
5 to 9.9 | CCCC[C@H]1C(=O)N(C)[C@@H](CCCC)C(=O)N[C@@H](CC(C)C)C(=O)N[C@H](C(=O)NCC(N)=O)CSCC(=O)N[C@@H](Cc2ccc(O)cc2)C(=O)N(C)[C@@H](C)C(=O)N[C@@H](CC(N)=O)C(=O)N2CCC[C@H]2C(=O)N[C@@H](Cc2c[nH]cn2)C(=O)N[C@@H](CCC(=O)O)C(=O)N(CC(=O)O)CC(=O)N[C@@H](Cc2c[nH]c3ccccc23)C(=O)N[C@@H](CCN)C(=O)N[C@@H](Cc2csc3ccccc23)C(=O)N1C [Example 5001]
5 to 9.9 | CCCC[C@H]1C(=O)N(CC)[C@@H](CCCC)C(=O)N[C@@H](CC(C)C)C(=O)N[C@H](C(=O)NCC(N)=O)CSCC(=O)N[C@@H](Cc2ccc(O)cc2)C(=O)N(C)[C@@H](C)C(=O)N[C@@H](CC(N)=O)C(=O)N2CCC[C@H]2C(=O)N[C@@H](Cc2cnc[nH]2)C(=O)N[C@@H](CCC(=O)O)C(=O)N2C[C@H](O)C[C@H]2C(=O)N[C@@H](Cc2c[nH]c3ccccc23)C(=O)N[C@@H](CCN)C(=O)N[C@@H](Cc2c[nH]c3ccccc23)C(=O)N1C [Example 3021] ({CH2CO}-Y[NMeA]NPHE[Hyp]W[Dab]W[NMeNle][X5]LCG-NH2; thioether N-14)

— patent US9861680B2, “Immunomodulators” (BRISTOL-MYERS SQUIBB COMPANY, priority 2014, dated 2018)
